Patent US11000033B2, “Ketone or oxime compound, and herbicide” (NISSAN CHEMICAL CORPORATION, priority 2014, dated 2021)

Legend:
Assay type in all cases: in vivo
rice = test: Test Example 4: effect on crop by soil treatment (symbol b); settings: application herbicide amount 320 g/ha
Procedure, shortened: (§1)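 Grown at 25° C. to 30° C. in a greenhouse, the crops came from seed sown spot-wise in sterilized diluvial soil under roughly 1.5 cm of covering soil.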

rice plant = test: Test Example 5: effect on crop by foliage application, plastic box (symbol b); settings: 320 g/ha, 3 weeks after application
Procedure, shortened: (§2)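 Foliage-application test plants come from spot sowing in sterilized diluvial soil under a soil layer of about 1.5 cm, grown at 25° C. to 30° C. in a greenhouse.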

Alopecurus myosuroides [1] = test: Test Example 5: herbicidal effect by foliage application, plastic box (symbol J); settings: 320 g/ha, 3 weeks after application
Procedure, shortened: (§3)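 Seeds were sown in sterilized diluvial soil, covered with about 1.5 cm of soil and grown 14 days in a greenhouse at 25° C. to 30° C. An emulsifiable formulation diluted in water to a set rate was sprayed over foliage, and injury was scored 3 weeks later.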

Stellaria media = test: Test Example 4: herbicidal effect by soil treatment (symbol P); settings: application herbicide amount 320 g/ha
Procedure, shortened: (§4)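 Seeds were sown in sterilized diluvial soil, covered with about 1.5 cm of soil, and the soil surface was sprayed with a water-diluted emulsion of the compound at a predetermined rate. Plants grew in a greenhouse at 25° C. to 30° C.; effects were scored visually 3 weeks after application.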

corn = test: Test Example 4: effect on crop by soil treatment (symbol c); settings: application herbicide amount 320 g/ha
Procedure, shortened: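 Seeds were sown in spots on sterilized diluvial soil in a plastic box and covered with about 1.5 cm of soil. Plants were then grown in a greenhouse at 25° C. to 30° C.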

Lolium multiflorum Lam. [2] = test: Test Example 5: herbicidal effect by foliage application, plastic box (symbol K); settings: 320 g/ha, 3 weeks after application
Procedure, shortened: as §3

wheat [3] = test: Test Example 5: effect on crop by foliage application, plastic box (symbol e); settings: 320 g/ha, 3 weeks after application
Procedure, shortened: as §2

wheat [4] = test: Test Example 4: effect on crop by soil treatment (symbol e); settings: application herbicide amount 320 g/ha
Procedure, shortened: as §1

rapeseed = test: Test Example 4: effect on crop by soil treatment (symbol g); settings: application herbicide amount 320 g/ha
Procedure, shortened: as §1

[5] = test system: Echinochloa oryzacola Vasing.; test: Test Example 2: herbicidal activity, application during weed generation in submerged conditions (symbol A); settings: Table 23; application herbicide amount 320 g/ha; grade 0-5 by criteria of Test Example 1
Procedure, shortened: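 Compound was applied as a water-diluted emulsion into the standing water of flooded pots (4 cm) once co-sown weeds reached one to two leaves. Greenhouse temperature was 25° C. to 30° C., soil was alluvial, and each species was rated visually after 3 weeks.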

Lolium multiflorum Lam. [6] = test: Test Example 4: herbicidal effect by soil treatment (symbol K); settings: application herbicide amount 320 g/ha
Procedure, shortened: as §4

Digitaria ciliaris = test: Test Example 4: herbicidal effect by soil treatment (symbol F); settings: application herbicide amount 320 g/ha
Procedure, shortened: as §4

[7] = test system: directly sowed rice plant; test: Test Example 3: effect on crop by foliage application, Wagner pot (symbol b); settings: application herbicide amount 320 g/ha
Procedure, shortened: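 Alluvial soil in a 1/10000-are Wagner pot was flooded to a water depth of 0.1–0.5 cm. Echinochloa crus-galli var. crus-galli, Leptochloa chinensis, Cyperus difformis and rice were sown into it and grown in a greenhouse at 25–30 °C.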

Alopecurus myosuroides [8] = test: Test Example 4: herbicidal effect by soil treatment (symbol J); settings: application herbicide amount 320 g/ha
Procedure, shortened: as §4

beet = test: Test Example 4: effect on crop by soil treatment (symbol f); settings: application herbicide amount 320 g/ha
Procedure, shortened: as §1

In the case of CC(=O)CC1CC(O)=C(c2c(C)cc(-c3ccc(Cl)cc3)cc2C)C1=O (stereo not drawn) [7-008], the “Effect on crop grade, b: directly sowed rice plant” value (rice) was 5 (Herbicidal ratio of 90% or more (almost completely withered)), the “b: directly sowed rice plant, effect on crop (criteria of Test Example 1)” value (rice plant) was 5 (Herbicidal ratio of 90% or more (almost completely withered)) and the “J: Alopecurus myosuroides, herbicidal effect (criteria of Test Example 1)” value (Alopecurus myosuroides [1]) was 5 (Herbicidal ratio of 90% or more (almost completely withered)). The “Herbicidal effect grade, P: Stellaria media” value (Stellaria media) was 0 (Herbicidal ratio of 5% or lower (almost no effect)), the “Effect on crop grade, c: corn” value (corn) was 4 (Herbicidal ratio of 70% or higher and lower than 90%) and the “K: Lolium multiflorum Lam., herbicidal effect (criteria of Test Example 1)” value (Lolium multiflorum Lam. [2]) was 5 (Herbicidal ratio of 90% or more (almost completely withered)). The “e: wheat, effect on crop (criteria of Test Example 1)” value (wheat [3]) was 4 (Herbicidal ratio of 70% or higher and lower than 90%), the “Effect on crop grade, e: wheat” value (wheat [4]) was 1 (Herbicidal ratio of 5% or higher and lower than 20%) and the “Effect on crop grade, g: rapeseed” value (rapeseed) was 0 (Herbicidal ratio of 5% or lower (almost no effect)). For the same compound, the “Herbicidal effect grade, A: Echinochloa oryzacola Vasing.” value [5] was 4 (Herbicidal ratio of 70% or higher and lower than 90%), the “Herbicidal effect grade, K: Lolium multiflorum Lam.” value (Lolium multiflorum Lam. [6]) was 5 (Herbicidal ratio of 90% or more (almost completely withered)) and the “Herbicidal effect grade, F: Digitaria ciliaris” value (Digitaria ciliaris) was 5 (Herbicidal ratio of 90% or more (almost completely withered)). For the same compound, the “effect on crop b (directly sowed rice plant), grade 0-5” value [7] was 5 (Herbicidal ratio of 90% or more (almost completely withered)), the “Herbicidal effect grade, J: Alopecurus myosuroides” value (Alopecurus myosuroides [8]) was 5 (Herbicidal ratio of 90% or more (almost completely withered)) and the “Effect on crop grade, f: beet” value (beet) was 0 (Herbicidal ratio of 5% or lower (almost no effect)).
